For nine compounds, Ki, IC50 and inhibition results are on record in ChEMBL document CHEMBL1148003 (Bioorg Med Chem, 2007).

Test [1] can be described thus: Inhibition of jack bean alpha-D-mannosidase. On the set-up: species or system Canavalia ensiformis.
Test [2] in a line: Inhibition of bovine kidney alpha-L-fucosidase. Also on record: species or system Bos taurus.
The nature of test [3]: Inhibition of Escherichia coli beta-D-galactosidase.
Test [4] in a line: Inhibition of almond beta-D-glucosidase. On the set-up: species or system Prunus dulcis.
Test [5] is filed under the species Bos taurus. Briefly: Inhibition of bovine kidney alpha-L-fucosidase at 1 mM.
A short description of test [6]: Inhibition of green coffee bean alpha-D-galactosidase at 1 mM.
Test [7] has as its system Cornu aspersum. Briefly: Inhibition of snail beta-D-mannosidase at 1 mM.
The test system of test [8] is Escherichia coli. Put plainly: Inhibition of Escherichia coli beta-D-galactosidase at 1 mM.
Test [9] deals with T1, Glucoamylase, intracellular sporulation-specific (Saccharomyces cerevisiae S288c) (UniProt P08019).
T1 sequence (whole entry): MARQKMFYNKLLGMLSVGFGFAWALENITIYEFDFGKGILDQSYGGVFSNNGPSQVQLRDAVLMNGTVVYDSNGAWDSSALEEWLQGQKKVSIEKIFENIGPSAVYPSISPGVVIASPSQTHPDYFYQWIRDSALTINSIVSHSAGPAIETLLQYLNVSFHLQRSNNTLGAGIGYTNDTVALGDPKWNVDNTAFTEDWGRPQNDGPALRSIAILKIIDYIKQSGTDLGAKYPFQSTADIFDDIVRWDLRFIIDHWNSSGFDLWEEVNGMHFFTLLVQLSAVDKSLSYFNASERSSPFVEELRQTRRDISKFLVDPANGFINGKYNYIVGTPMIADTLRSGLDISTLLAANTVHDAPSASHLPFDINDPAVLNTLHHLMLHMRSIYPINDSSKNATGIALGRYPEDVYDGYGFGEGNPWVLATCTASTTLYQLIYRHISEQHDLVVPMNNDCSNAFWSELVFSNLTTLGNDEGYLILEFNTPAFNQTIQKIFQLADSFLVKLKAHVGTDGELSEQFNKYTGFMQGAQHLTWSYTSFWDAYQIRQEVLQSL
Put plainly: Inhibition of yeast alpha-D-glucosidase at 1 mM.

The nature of test [10]: Inhibition of snail beta-D-mannosidase. On the set-up: species or system Cornu aspersum.
Test [11] is described as follows: Inhibition of Aspergillus wentii beta-D-mannosidase.
Test [12] in a line: Inhibition of green coffee bean alpha-D-galactosidase.

What is called Ki is the dissociation constant of the complex between target and ligand, obtained from inhibition or displacement. A higher Ki goes with a looser hold on the target. Usually IC50 stands for the midpoint of a concentration-inhibition curve. Read a high IC50 as weaker potency in that assay. In the case of `O[C@@H]1CN=C[C@@H]1O`, the inhibition constant Ki worked out at 20 µM in test [1] and 3 µM in test [2]. The compound further showed an IC50 in [3] of 1000 µM.
`O=S(=O)(O)C1NC[C@@H](O)[C@@H]1O` (stereo not given in full) yielded a Ki in test [1] of 5 µM. Moreover, inhibition in test [4] was half-maximal at 180 µM (IC50).
For orientation: inhibition means the share of the control response that was lost under treatment. As to `O=S(=O)(O)C1NC[C@H](O)[C@H]1O` (stereo not given in full), the inhibition in test [5] stood at 23%; in [6] it was 20%; in test [7], 28%. The compound also showed an IC50 in test [4] of 2000 µM.
For `O[C@@H]1CNC[C@H]1O`, the inhibition is 20% in [8], 43% in test [9] and 27% in [6].
Turning to `O[C@H]1[C@H](O)CN[C@H]1O`, in test [1], the Ki is 5 µM. In addition, the IC50 is 1000 µM in test [10] and 200 µM in test [4]. Further, the inhibition in [6] worked out at 40%; in [7] it was 50%.
For `OC[C@H]1NC(O)[C@H](O)[C@@H](O)[C@@H]1O` (stereo not given in full) [NOJIRIMYCIN], the inhibitory constant (Ki) in test [1] was 500 µM; in test [4], 0.9 µM; in test [11], 900 µM.
On to `OC[C@H]1N=C[C@@H](O)[C@@H]1O` [NECTRISINE], for which the results for the IC50 in [1] and in [4] were 3 µM and 2.2 µM, respectively. Further, in [11], the affinity, expressed as Ki, was 42 µM.
`OC[C@H]1NC[C@@H](O)[C@@H]1O`: the 50% inhibitory concentration (IC50) amounted to 200 µM in test [1] and 500 µM in test [4].
Consider `O[C@@H]1C=NC[C@@H]1O`, for which the inhibition constant (Ki) in [1] is 2 µM; in test [12], 0.2 µM; in [4], 0.3 µM; in test [3], 0.2 µM. For the same compound, in test [2], it took 1000 µM to reach half-maximal inhibition (IC50).
